Laboratory results published in article PMC2228596 (The Journal of General Physiology, 1980).
Read-outs that look alike come from different tables or passages of the source.

Columns and labels:
[1] = test system: Na+ channels in synaptosomes; settings: cited from earlier work; for Synaptosome depolarization: ref VER: Goldring and Blaustein, BTX: Krueger and Blaustein, 1978
[2] = test system: Na+ channels, neuroblastoma cells; settings: ref Catterall (1977 b); cited from earlier work
[3] = test system: voltage-dependent Na+ channels in excitable membranes; settings: cited from earlier work; for Effect on kinetics of activation and inactivation of Na+ channels: electrophysiology, Khodorov et al.; for Effect on kinetics of activation and inactivation of Na+ channels / Use dependence of activator effects: ref Ulbricht, 1969; for Use dependence of activator effects: intact nerve preparations, Albuquerque et al., Bartels-Bernal et al., 1977, Revenko; for Opening of Na+ channels: Catterall
[4] = test system: Na+ channels in rat brain synaptosomes; experiment: Synaptosome membrane potential; type: cell-based
[5] = test system: Na+ channels in rat brain synaptosomes; type: cell-based
[6] = ref Albuquerque et al., 1973, 1975
[7] = ref Narahashi and Seyama, 1974, 1977 b

## COc1ccc(C(=O)O[C@H]2CC[C@@]3(C)[C@@H]4CC[C@H]5[C@]6(O)C[C@H](O)[C@@]7(O)[C@@H](CN8C[C@@H](C)CC[C@H]8[C@@]7(C)O)[C@]6(O)C[C@@]53O[C@]24O)cc1OC [VER, veratridine]
[1]; ref Blaustein, 1975, Cotman et al., 1976
  Release of neurotransmitters from synaptosomes: VER-stimu- lated release of neurotransmitters
[1]; ref Blaustein, 1975, Nachshen and Blaustein, 1979
  Ca2+ uptake into synaptosomes: VER-stimulated Ca2+ uptake
[1]; ref Li and White (1977), Matthews et al. (1979)
  Uptake of Na+ into synaptosomes: VER-stimulated, TTX-sensitive uptake of Na + into synaptosomes
[1]; 1975
  Synaptosome depolarization: induced synaptosome depolarization
[2]
  Preference of binding to open over nonopen states: ~ 600 times
[3]; 1975
  Effect on kinetics of activation and inactivation of Na+ channels: alter the kinetic properties of the rapid, voltage-sensitive activation and inactivation of Na + channels
[3]; 1973
  Use dependence of activator effects: use dependent
[3]; [6]
  Opening of Na+ channels: open TTX-sensitive Na + channels
[4]; data not shown
  Time to complete depolarizing effect: up to 5 min
[4]; highest concentration tested, 300 μM VER, no LqTX
  Depolarization relative to maximally effective BTX or 150 mM K+ (ΔF = 100%): 50-60%
[5]; 0.1 μM LqTX
  Maximal effect of VER on Na+ uptake with LqTX: increased in the presence of LqTX to the same level observed in the presence of 10 ~M BTX
[5]; 1 μM AxTX
  Na+ uptake at maximally effective VER with AxTX: increased in the presence of AxTX

## CCN1C[C@]2(COC)[C@H](O)C[C@H](OC)[C@@]34[C@@H]5C[C@@]6(O)[C@H](OC(=O)c7ccccc7)[C@@H]5[C@@](OC(C)=O)([C@@H]([C@H](OC)[C@H]23)[C@@H]14)[C@@H](O)[C@@H]6OC [aconitine]
[3]; [7]
  Opening of Na+ channels: open Na + channels

## COC(=O)[C@@H]1[C@H]2C[C@H]3c4[nH]c5ccccc5c4CCN3C[C@@H]2CC[C@@H]1O [yohimbine]
[3]; ref Huang et al., 1978
  Antagonism of Na+ channel openers: competitive antagonist of these agents

## Grayanotoxin
[3]; [7]
  Opening of Na+ channels: open Na + channels

## anthopleurin-A [AxTX]
[5]; 1 μM AxTX
  Potentiation of BTX by AxTX: potentiated the effects of BTX without itself greatly increasing Na + uptake
  Potentiation of VER by AxTX: potentiated the effects of VER
[5]; absence of VER or BTX
  Effect of AxTX alone on Na+ uptake: small increase in Na + uptake

## batrachotoxin [BTX]
[1]; 1975
  Synaptosome depolarization: induced synaptosome depolarization
[3]; 1975
  Effect on kinetics of activation and inactivation of Na+ channels: alter the kinetic properties of the rapid, voltage-sensitive activation and inactivation of Na + channels
[3]; 1973
  Use dependence of activator effects: use dependent
[3]; [6]
  Opening of Na+ channels: open TTX-sensitive Na + channels
[4]; 30 μM BTX, 140 Ch + 5 Na + 5 K, data not shown
  Fluorescence increase in low-Na medium: same amount as did increasing the external K concentration from 5 to 8 mM
[4]; data not shown
  Time to complete depolarizing effect: up to 5 min
[4]; maximally effective concentration of BTX, no LqTX
  Maximal depolarization, ΔF (% of 150 mM K+): 100%
[5]; 0.1 μM LqTX
  Effect of BTX >0.3 μM in presence of LqTX: slightly inhibitory
[5]; 10 μM BTX
  BTX-stimulated 22Na influx during the second s of incubation: slightly less than that during the first s
[5]; 10 μM BTX, 2 s uptake, 2.5-30 mM Na+
  Na+ concentration up to which BTX-stimulated uptake is proportional to Na+: up to 5 mM
[5]; 10 μM BTX, 5 min at 30°C, 5 mM Na+
  Na+ uptake rate: ~ 1 nmol s-1 mg-1
[5]; each of three experiments
  Maximal Na+ uptake by BTX without vs with LqTX: slightly greater in the absence than in the presence of LqTX
[5]; presence of 10 μM BTX, 30°C
  Time to isotopic equilibrium: about 5 s
